Patent US9617256B2 (priority 2007, dated 2017)
Values after ≈ are worked out from the molar mass of the structure shown. Like-named read-outs stand apart in the source and are kept apart here.

Tests used:
[1] = tested on: APAE006 (strain of P. aeruginosa in which all efflux pumps are inactivated); assay: microbe, parasite or virus in culture; format: cell-based; settings: Pseudomonas aeruginosa, read-out: MIC APAE006, APAE006, all efflux pumps inactivated
In short: (§1)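 Growth inhibition was scored by CLSI broth microdilution using cation-adjusted Mueller-Hinton broth and a final inoculum between 3×10^5 and 7×10^5 CFU/mL, incubated 18-24 hours at 35° C.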

[2] = tested on: AABA1060 (clinical isolate of Acinetobacter baumannii); assay: MIC broth microdilution, AABA1060; format: cell-based; settings: Acinetobacter baumannii, read-out: MIC AABA1060
In short: (§2)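 Incubation: 35° C., ambient air, 18-24 h. Medium: cation-adjusted Mueller-Hinton broth with 2-fold serial dilutions of drug. Inoculum: 3×10^5–7×10^5 CFU/mL final, per CLSI microdilution method.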

[3] = tested on: AECO063 (ATCC25922 bearing an acrAB mutation); assay: microbe, parasite or virus in culture; format: cell-based, E. coli; settings: Escherichia coli, ATCC25922, read-out: MIC AECO063
In short: as §2

AECO001 (ATCC25922) = assay: MIC broth microdilution, AECO001; format: cell-based, E. coli; settings: Escherichia coli
In short: as §2

APAE001 (ATCC27853) = assay: MIC broth microdilution, APAE001; format: cell-based, P. aeruginosa; settings: Pseudomonas aeruginosa, ATCC27853, read-out: MIC APAE001, APAE001 (ATCC27853)
In short: as §2

[4] = tested on: APAE006 in the presence of 8 micrograms per milliliter of polymyxin B nonapeptide; format: cell-based, P. aeruginosa; settings: APAE006 with 8 micrograms per milliliter polymyxin B nonapeptide
In short: as §1

[5] = tested on: ASAU001 (laboratory strain of S. aureus, ATCC29213); assay: MIC broth microdilution, ASAU001; format: cell-based; settings: Staphylococcus aureus, ATCC29213, read-out: MIC ASAU001
In short: as §2

[6] = ATCC25922, read-out: MIC AECO001
[7] = ATCC25922, read-out: MIC AECO001 HSA AGP

Row | SMILES | MIC [1] [µg/mL] | MIC [2] [µg/mL] | MIC [3] [µg/mL] | MIC (AECO001 (ATCC25922); [6]) [µg/mL] | MIC (AECO001 (ATCC25922); [7]) [µg/mL] | MIC (APAE001 (ATCC27853)) [µg/mL] | MIC APAE006 + PMBN [4] | MIC [5] [µg/mL]
1 | CC(C)(O)[C@H](NC(=O)c1ccc(C#CC#CCC2CCCC2)cc1)C(=O)NO [Example 91-20] | 2 to 16 (≈ 5.23 to 41.8 µM) | 2 to 16 (≈ 5.23 to 41.8 µM) | < 2 | < 2 | 2 to 16 (≈ 5.23 to 41.8 µM) | 2 to 16 (≈ 5.23 to 41.8 µM) | A (MIC's of 2.0 μg/mL or less = A) | 16 to 64 (≈ 41.8 to 167 µM)
2 | CC(C)CCC#CC#Cc1ccc(C(=O)N[C@H](C(=O)NO)C(C)(C)N)cc1 [Example 91-21] | < 2 | 2 to 16 (≈ 5.41 to 43.3 µM) | < 2 | < 2 | 2 to 16 (≈ 5.41 to 43.3 µM) | 2 to 16 (≈ 5.41 to 43.3 µM) | A (MIC's of 2.0 μg/mL or less = A) | 2 to 16 (≈ 5.41 to 43.3 µM)
3 | CC(C)CC#CC#Cc1ccc(C(=O)N[C@H](C(=O)NO)C(C)(C)N)cc1 [Example 91-22] | < 2 | 2 to 16 (≈ 5.63 to 45 µM) | < 2 | < 2 | 2 to 16 (≈ 5.63 to 45 µM) | 2 to 16 (≈ 5.63 to 45 µM) | A (MIC's of 2.0 μg/mL or less = A) | 2 to 16 (≈ 5.63 to 45 µM)
4 | CC(C)(N)[C@H](NC(=O)c1ccc(C#CC#CCC2CCCC2)cc1)C(=O)NO [Example 91-23] | < 2 | 2 to 16 (≈ 5.24 to 41.9 µM) | < 2 | < 2 | 2 to 16 (≈ 5.24 to 41.9 µM) | 2 to 16 (≈ 5.24 to 41.9 µM) | A (MIC's of 2.0 μg/mL or less = A) | 2 to 16 (≈ 5.24 to 41.9 µM)
5 | C[C@@H](N)[C@H](NC(=O)c1ccc(C#CC#CCC2CCCC2)cc1)C(=O)NO [Example 91-25] | 2 to 16 (≈ 5.44 to 43.5 µM) | 16 to 64 (≈ 43.5 to 174 µM) | 16 to 64 (≈ 43.5 to 174 µM) | 16 to 64 (≈ 43.5 to 174 µM) | 16 to 64 (≈ 43.5 to 174 µM) | 16 to 64 (≈ 43.5 to 174 µM) | B (MIC's of greater than 2.0 μg/mL to 16.0 μg/mL = B) | 16 to 64 (≈ 43.5 to 174 µM)
6 | CC(C)CCC#CC#Cc1ccc(C(=O)N[C@H](C(=O)NO)[C@@H](C)N)cc1 [Example 91-28] | < 2 | 2 to 16 (≈ 5.63 to 45 µM) | < 2 | < 2 | 2 to 16 (≈ 5.63 to 45 µM) | 2 to 16 (≈ 5.63 to 45 µM) | A (MIC's of 2.0 μg/mL or less = A) | 2 to 16 (≈ 5.63 to 45 µM)
7 | C[C@@H](N)[C@H](NC(=O)c1ccc(C#CC#CC(C)(C)O)cc1)C(=O)NO [Example 91-30] | < 2 | 16 to 64 (≈ 46.6 to 186 µM) | 2 to 16 (≈ 5.82 to 46.6 µM) | 16 to 64 (≈ 46.6 to 186 µM) | 16 to 64 (≈ 46.6 to 186 µM) | < 2 | A (MIC's of 2.0 μg/mL or less = A) | 16 to 64 (≈ 46.6 to 186 µM)
8 | C[C@H](C#CC#Cc1ccc(C(=O)N[C@H](C(=O)NO)[C@@H](C)N)cc1)N1CCOCC1 [Example 92-1, N-((2S,3R)-3-amino-1-(hydroxyamino)-1-oxobutan-2-yl)-4-((R)-5-morpholinohexa-1,3-diynyl)benzamide] | < 2 | 16 to 64 (≈ 40.2 to 161 µM) | 2 to 16 (≈ 5.02 to 40.2 µM) | 2 to 16 (≈ 5.02 to 40.2 µM) | 16 to 64 (≈ 40.2 to 161 µM) | 2 to 16 (≈ 5.02 to 40.2 µM) | A (MIC's of 2.0 μg/mL or less = A) | 16 to 64 (≈ 40.2 to 161 µM)
9 | C[C@@H](N)[C@H](NC(=O)c1ccc(C#CC#C[C@H](C)N2CCOCC2)cc1)C(=O)NO [Example 92-2, N-((2S,3R)-3-amino-1-(hydroxyamino)-1-oxobutan-2-yl)-4-((S)-5-morpholinohexa-1,3-diynyl)benzamide] | 2 to 16 (≈ 5.02 to 40.2 µM) | 16 to 64 (≈ 40.2 to 161 µM) | 2 to 16 (≈ 5.02 to 40.2 µM) | 16 to 64 (≈ 40.2 to 161 µM) | 16 to 64 (≈ 40.2 to 161 µM) | 16 to 64 (≈ 40.2 to 161 µM) | B (MIC's of greater than 2.0 μg/mL to 16.0 μg/mL = B) | 16 to 64 (≈ 40.2 to 161 µM)
10 | C[C@@H](N)[C@H](NC(=O)c1ccc(C#CC#Cc2ccc(NS(C)(=O)=O)cc2)cc1)C(=O)NO [Example 93-1, N-((2S,3R)-3-amino-1-(hydroxyamino)-1-oxobutan-2-yl)-4-((4-(methylsulfonamido)phenyl)buta-1,3-diynyl)benzamide] | < 2 | < 2 | < 2 | < 2 | 16 to 64 (≈ 35.2 to 141 µM) | < 2 | A (MIC's of 2.0 μg/mL or less = A) | 16 to 64 (≈ 35.2 to 141 µM)
11 | O=C(NC(C(=O)NO)C1(O)CC1)c1ccc(C#CC#CC2CC2)cc1 (stereo not drawn) [Example 94-1, 4-(cyclopropylbuta-1,3-diynyl)-N-(2-(hydroxyamino)-1-(1-hydroxycyclopropyl)-2-oxoethyl)benzamide] | < 2 | 2 to 16 (≈ 5.91 to 47.3 µM) | < 2 | < 2 | 2 to 16 (≈ 5.91 to 47.3 µM) | < 2 | A (MIC's of 2.0 μg/mL or less = A) | 16 to 64 (≈ 47.3 to 189 µM)
12 | CC(C)(N)[C@H](NC(=O)c1ccc(C#C/C=C/c2ccc(CNC3CC3)cc2)cc1)C(=O)NO [Example 102-6] | < 2 | 2 to 16 (≈ 4.48 to 35.8 µM) | < 2 | < 2 | 2 to 16 (≈ 4.48 to 35.8 µM) | < 2 | A (MIC's of 2.0 μg/mL or less = A) | 16 to 64 (≈ 35.8 to 143 µM)
